# Tested on: IgG1 and IgG2a antibodies to TT
# Parameters: species or system mice
# Details: mouse, in vivo
smiles,measurement,value
"CCCCCCCCCCCCCCCCCCCCCCCCCC(=O)N[C@@H](CO[C@H]1OC(CO)[C@H](O)C(O)C1O)[C@H](O)[C@@H](O)CCCCCCCCCCCCCC (stereo partly drawn) [α-GC, α-galactosylceramide]","production of IgG1 and IgG2a antibodies compared to CFA, CpG, MF59 and Alum",overall as potent as the above benchmark adjuvants
